Measured values reported in patent US11291693B2, “Bacteria engineered to treat metabolic diseases” (Synlogic Operating Company, Inc., priority 2015, dated 2022).

Legend:
[1] = system: PnsrR-GFP reporter construct; assay: Nitric oxide-inducible GFP reporter assay, fluorescence plate reader; format: cell-based, E. coli Nissle; conditions: NO donor DETA-NO, two-fold decreased across a range of concentrations; relative florescence units; FIG. 28
[2] = system: dipeptidyl peptidase IV (DPP-IV); conditions: cited from earlier work; for resistance to DPPIV mediated degradation / cleavage: short description of a known GLP-1R agonist in Table 10, in words
[3] = system: rat intestinal epithelial cells; conditions: cited from earlier work
[4] = system: Ptet-GFP reporter construct; assay: ATC-inducible GFP reporter assay, fluorescence plate reader; format: cell-based, E. coli Nissle; conditions: two-fold decreased inducer across a range of concentrations; relative florescence units; FIG. 28

For `NCCN(CCN)/[N+]([O-])=N/O` [NO, diethylenetriamine-nitric oxide adduct], the “induction of GFP expression in PnsrR-GFP reporter construct” value [1] was “able to induce the expression of GFP”.
For Dulaglutide, the “resistance to DPPIV mediated degradation / cleavage” value [2] is listed as “protection from DPPIV”.
For “GLP-1(1-37): full-length form of GLP-1, SEQ ID NO: 73 (HDEFERHAEGTFTSDVSSYLEGQAAKEFIAWLVKGRG)”, the “effect on intestinal epithelial cells” value [3] is listed as “stimulate rat intestinal epithelial cells to become glucose-responsive insulin-secreting cells”.
In the case of “GLP-1(7-37): circulating active form of GLP-1, SEQ ID NO: 75”, the “biological half-life in blood” value ([2]; blood) is given as “a few minutes”.
For “GLP-1: glucagon-like peptide 1, produced by intestinal cells”, the stability ([2]; rapid degradation catalyzed by DPP-IV) is given as 3 to 5 min.
In the case of Taspoglutide, the “resistance to DPPIV mediated degradation / cleavage” value [2] is given as “avoid degradation by DPPIV,”.
For anhydrous tetracycline [ATC], the “induction of GFP expression in Ptet-GFP reporter construct” value [4] was “able to induce the expression of GFP”.
